This note sets out measurements from US10765687B2, “Methods and compounds to inhibit enveloped virus release” (Northwestern University, priority 2012, dated 2020).

Entries after “also recorded” stand apart in the source; their conditions may differ. No end group written: not given here.

One series deals with T1, TSG101 (SEQ ID NO:33) (Homo sapiens, UniProt Q99816).
T1 construct: polyhistidine leader with thrombin cleavage site (pET28b) (N); TEV cleavage site (N); made in house
T1 sequence (Q99816 with tags, fused parts or gaps): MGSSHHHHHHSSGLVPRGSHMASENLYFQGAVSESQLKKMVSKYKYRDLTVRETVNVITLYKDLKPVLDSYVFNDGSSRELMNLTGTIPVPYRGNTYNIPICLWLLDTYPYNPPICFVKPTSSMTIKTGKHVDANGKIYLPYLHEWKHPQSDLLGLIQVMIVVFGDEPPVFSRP
As to the kind of experiment: Fluorescence-based thermal shift (FTS) assay. Type of series: binding. As to conditions: FIG. 7. The method, then: The fluorescence-based thermal shift assay is based on the observation that a protein unfolds upon heating, exposing the hydrophobic residues within its tertiary structure. The unfolding temperature (Tm) is determined by the protein's primary sequence and solution environment. The FTS assay uses a fluorescent dye sensitive to a hydrophobic environment to probe protein stability and its modulation by small molecule ligands. The dye has a low fluorescence quantum yield when in a polar environment. […] J Biomol Screen 6: 429-440; Lo M C, Aulabaugh A, Jin G, Cowling R, Bard J, et al. (2004) Evaluation of fluorescence-based thermal shift assays for hit identification in drug discovery. […]
The NU-HTA has developed a robotic pipeline for small molecule protein ligand screening by FTS. See Luan C H, Light S H, Dunne S F, Anderson W F. Ligand screening using Fluorescence Thermal Shift Analysis (FTS). […] The pipeline uses an Echo550 acoustic transfer robot (Labcyte, CA) for compound addition and the Mosquito robot (TTP LabTechnologies, UK) for protein dispensing followed by thermal scanning coupled with fluorescence detection which is performed on a real-time PCR machine CFX384 (Bio-Rad Laboratories). […]

Another series deals with HSV-1 (strain F). As to the kind of experiment: HSV-1 virus production and release from infected Vero cells, plaque assay. It counts as cell-based. As to conditions: FIG. 8A. The method, then:
Vero cells were inoculated with HSV-1 (strain F) at a multiplicity of infection (MOI) of 0.01 for 2 hr. The cells were washed and treated with 0.10 M sodium citrate buffer to inactivate viruses on the outside of the cells (for example, in the culture medium). The culture medium was replaced with fresh culture medium containing no inhibitor compound or different concentrations (40 μM or 80 μM) of inhibitor compounds F15 or N16 (candidate PTAP motif inhibitors against the TSG101 peptide [SEQ ID NO:33]) for 48 hr. The supernatants (culture medium) and total cells (culture medium and cells) were collected for determining infectious virus titer. The virus titers were determined by standard plaque assay on Vero cells.
Vero cells were grown in DMEM supplemented with 10% FBS. Viral infections were performed in DMEM supplemented with 1% heat-inactivated FBS. Vero cells were inoculated HSV-1 (strain F) at indicated concentrations, after 2 h, the cells were washed and treated with 0.1 M sodium citrate buffer (pH 3.0) for 1 min to inactivate unpenetrated viruses, washed again and incubated with fresh medium containing 1% heat-inactivated FBS. […] Then virus titers were determined by standard plaque assay on Vero cells.

For a further series, the system named is Vero cells. Briefly: MTS cytotoxicity assay. The following applies: 0 μM to 100 μM, uninfected cells, absorbance at 490 nm, FIG. 8B; listed as N16. The method, then: The cytotoxicity of the compounds was determined by a commercially available assay (Celltiter 96® AQueous One Solution cell proliferation assay reagent; Promega, Madison, Wis.), as described previously (Akkarawongsa et al., 2006). The CellTiter 96® AQueous One Solution Cell Proliferation Assay is a colorimetric method for determining the number of viable cells in proliferation, cytotoxicity or chemosensitivity assays. The CellTiter 96® AQueous One Solution Reagent contains a tetrazolium compound [3-(4,5-dimethylthiazol-2-yl)-5-(3-carboxymethoxyphenyl)-2-(4-sulfophenyl)-2H-tetrazolium, inner salt; MTS] and an electron coupling reagent (phenazine ethosulfate; PES). PES has enhanced chemical stability, which allows it to be combined with MTS to form a stable solution. […] Assays are performed by adding a small amount of the CellTiter 96® AQueous One Solution Reagent directly to culture wells, incubating for 1-4 hours and then recording absorbance at 490 nm with a 96-well plate reader. The quantity of formazan product as measured by the amount of 490 nm absorbance is directly proportional to the number of living cells in culture.
Briefly, Vero cells (1.5×10^4 cells/well) were seeded in a 96-well plate, and the plate was incubated for 24 h at 37° C. […] The plate was then incubated for 2 h at 37° C., and the absorbance at 490 nm was determined with a 96-well plate reader (Perkin Elmer).

Series [1] deals with T2, WWP2 (SEQ ID NO:24) (Homo sapiens, UniProt O00308).
T2 construct: poly-His (pET28b leader with thrombin site) (N, cleaved yes); made in house; host or cells: E. coli BL21 DE3
Briefly: Fluorescence polarization assay (FITC/TAMRA) for disruption of WWP2 binding to PY-motif peptide probe. The following applies: SEQ ID NO: 17 probe with FITC or TAMRA label; read-out: [compound] to achieve 50% change in fluorescence polarization in FP Assay. The method, then: Screens for compounds that disrupt the binding of the FTIC-peptide and WWP2 (SEQ ID NO:24) were carried out in 384-well plate format with […] assay volume at ˜[…] WWP2. Non-binding solid black plates (Corning Costar 3575) were used. The assay buffer contained 20 mM Tris and 150 mM NaCl at pH 7.9. FP was measured on either a Biotek Synergy4 or an Analyst GT plate reader. Data analysis was performed using the in-house software excelHTS. […] Each assay plate included 16 negative control wells containing protein-probe mix but no compounds and 16 wells containing only probe.
(In general: Polarisation of emitted light reports the rotation of a fluorescent probe.)

For series [2], the target named is T2, WWP2 (SEQ ID NO:24). Briefly: Epic label-free binding assay of compounds to immobilized WWP2. The method, then:
Another preferred embodiment of an in vitro screening method is depicted in FIG. 3. In this method, the ability of the candidate compound 204 to directly interact with the cellular ESCRT-linked component protein (for example, Nedd4 family of polypeptides [for example, WWP1 (SEQ ID NO:29), WWP2 (SEQ ID NO:24), Nedd4 L, among others]) or TGS101 is evaluated. According to this embodiment, a cellular ESCRT component protein 202 is preferably immobilized to a substrate 201 (for example, a microtiter plate) via a linking group 203 (for example, an amine group). The substrate preferably includes an optional reference area that provides a control to prevent non-specific interactions with non-mobilized ESCRT complex protein 202 with substrate 201. The substrate 201 is washed and irradiated with broadband light so that a baseline refractive index is measured. Test compound 204 is added to the system to permit its binding to the immobilized ESCRT component protein 202 to form a resultant associative complex 205. The substrate 201 is irradiated with broadband light again to detect a change in the wavelength of the reflected light.
High sensitivity biochemical plates (PerkinElmer Cat. No. 6057468) are used in WWP2 (SEQ ID NO:24) binding assay to maximize protein immobilization. […] Because compound stocks are in DMSO that affects the Epic label-free readout, the compound plates were prepared by Echo550 acoustic dispenser to keep DMSO content balanced for all wells. […]
The binding of compounds to WWP2 (SEQ ID NO:24) was measured on the EnSpire label-free plate reader. After 25 minutes of thermal equilibration, a baseline reading was taken on the label-free plates with protein immobilized in assay buffer. […] The final reading was taken after 25 min of thermal equilibration and over a period of 60 minutes. The label-free responses were measured as shifts in reflected wavelength and were expressed in picometers (pm). Results were analyzed using the EnSpire label-free user interface software. […]

The target in series [3] is T3, WWP2 polypeptide (SEQ ID NO:24) (Homo sapiens, UniProt O00308).
T3 construct: poly-His (pET28b leader with thrombin site) (N, cleaved yes); made in house; host or cells: E. coli BL21 DE3
Briefly: Fluorescence polarization WWP2 protein dose-response, binding of PY-motif peptide probes. As for the experimental part:
[…] Non-binding solid black plates (Corning Costar 3575) were used. The assay buffer contained 20 mM Tris and 150 mM NaCl at pH 7.9. FP was measured on either a Biotek Synergy4 or an Analyst GT plate reader. Data analysis was performed using the in-house software excelHTS. […] Each assay plate included 16 negative control wells containing protein-probe mix but no compounds and 16 wells containing only probe.

T2 sequence (O00308 with tags, fused parts or gaps): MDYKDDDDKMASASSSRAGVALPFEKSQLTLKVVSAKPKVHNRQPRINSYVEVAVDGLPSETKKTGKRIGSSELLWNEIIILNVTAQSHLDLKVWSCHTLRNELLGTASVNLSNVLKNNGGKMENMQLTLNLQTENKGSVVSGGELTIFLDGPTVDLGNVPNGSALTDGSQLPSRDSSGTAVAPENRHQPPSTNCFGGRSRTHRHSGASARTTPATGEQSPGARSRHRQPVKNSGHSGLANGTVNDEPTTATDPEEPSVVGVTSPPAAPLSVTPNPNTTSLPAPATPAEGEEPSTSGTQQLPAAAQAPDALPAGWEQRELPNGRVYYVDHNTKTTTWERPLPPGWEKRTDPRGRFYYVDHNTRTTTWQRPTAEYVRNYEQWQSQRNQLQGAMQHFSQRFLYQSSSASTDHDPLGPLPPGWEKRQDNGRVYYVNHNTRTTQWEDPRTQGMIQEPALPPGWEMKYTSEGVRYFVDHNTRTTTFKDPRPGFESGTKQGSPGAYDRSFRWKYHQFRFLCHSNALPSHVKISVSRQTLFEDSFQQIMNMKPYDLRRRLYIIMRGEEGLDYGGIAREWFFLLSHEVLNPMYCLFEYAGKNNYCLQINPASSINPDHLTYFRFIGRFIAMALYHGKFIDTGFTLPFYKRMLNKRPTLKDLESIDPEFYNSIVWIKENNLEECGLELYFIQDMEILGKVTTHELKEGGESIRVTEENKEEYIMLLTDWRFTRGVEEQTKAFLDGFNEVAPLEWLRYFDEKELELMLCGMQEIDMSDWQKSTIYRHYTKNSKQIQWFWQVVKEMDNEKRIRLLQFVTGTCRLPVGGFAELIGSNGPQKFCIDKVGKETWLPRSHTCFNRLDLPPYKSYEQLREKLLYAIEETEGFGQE
T3 sequence (O00308 with tags, fused parts or gaps): as above

`COc1ccc2[nH]c([S+]([O-])Cc3ncc(C)c(OC)c3C)nc2n1` (racemic) [Tenatoprazole, (RS)-3-Methoxy-8-[(4-methoxy-3,5-dimethyl-pyridin-2-yl)methylsulfinyl]-2,7,9-triazabicyclo[4.3.0]nona-2,4,8,10-tetraene]: the “Thermal shift in protein unfolding (Tm) of TSG101” value on TSG101 (SEQ ID NO:33) is given as “lower Tm”. Further, the “HSV-1 virion release from cells (in words)” value with HSV-1 (strain F) is “inhibit HSV-1 virion release from cells”. In the series with Vero cells, the “Cytotoxic effects on Vero cells” value is on record as “Neither inhibitor compound was cytotoxic; also recorded: not toxic; also recorded: did not display cytotoxic effects”. As to `CCC(/C=C1\Sc2cc(Br)ccc2N1CC)=C\c1sc2cc(Br)ccc2[n+]1CC` [CD23-G07], the IC50 at WWP2 (SEQ ID NO:24) [1] lay in the range of 20 to 30 µM. In the case of `CC1=C(O)C(=O)C=C2C1=CC=C1[C@@]2(C)CC[C@@]2(C)[C@@H]3C[C@](C)(C(=O)O)CC[C@]3(C)CC[C@]12C` [Celastrol, 3-Hydroxy-9β,13α-dimethyl-2-oxo-24,25,26-trinoroleana-1(10),3,5,7-tetraen-29-oic acid], binding at WWP2 (SEQ ID NO:24) [2] was characterised by a dissociation constant (Kd) of 18.5 µM. Regarding `COc1ccc2[n-]c([S@@+]([O-])Cc3ncc(C)c(OC)c3C)nc2c1.[K+]` [Esomeprazole potassium, 5-methoxy-2-[(R)-[(4-methoxy-3,5-dimethylpyridin-2-yl)methane]sulfinyl]-1H-1,3-benzodiazole, potassium], the “HSV-1 virion release from cells (in words)” value in the series on HSV-1 (strain F) is “inhibit HSV-1 virion release from cells”. `O=C1c2ccccc2C(=O)c2c(NC3CCCCC3)ccc(Nc3ccc(S(=O)(=O)O)cc3)c21` [NSC128437]: on WWP2 (SEQ ID NO:24) [1], the IC50 was found to be 3 µM. On the same count and under the same terms, the same measure for `Cc1nn(-c2ccc(S(=O)(=O)[O-])cc2)c([O-])c1N=Nc1ccc(-c2ccc(N=Nc3ccc4c(S(=O)(=O)[O-])cc(S(=O)(=O)[O-])c(N)c4c3[O-])c([O-])c2)cc1[O-].[Cu+2].[Cu+2].[H+].[H+].[H+]` [NSC306711]: 1 µM. In the case of “ATASAPPPYVGSGGGATASAPPPYVGSGGGATASAPPPYVGSGGGRRR [SEQ ID NO:17]”, the Kd – broadly, the concentration at which binding is half-saturated – in series [3] was 0.2 µM.
